Our source for the IC50 and inhibition values is ChEMBL document CHEMBL6074656, “Biological evaluation of signal transducer and activator of transcription 3 (STAT3) targeting by phaeosphaeride A and its analogs” (Bioorg Med Chem Lett, 2024).

The test system of one assay is MDA-MB-231. Kind of assay: Inhibition of cell growth in human MDA-MB-231 cells by MTT assay. The assay is classed as functional, cell-based. On the technique in general: Tetrazolium dyes change colour on reduction, which living cells bring about.
In assay [1] the target is Signal transducer and activator of transcription 3 (Homo sapiens, UniProt P40763). Put plainly: Inhibition of IL-6-induced STAT3 phosphorylation at Tyr705 in human HeLa cells by Western blot analysis. The assay is classed as cell-based. On the technique in general: Immunoblotting shows a protein as a band on a membrane.
Signal transducer and activator of transcription 3, sequence (P40763 whole entry): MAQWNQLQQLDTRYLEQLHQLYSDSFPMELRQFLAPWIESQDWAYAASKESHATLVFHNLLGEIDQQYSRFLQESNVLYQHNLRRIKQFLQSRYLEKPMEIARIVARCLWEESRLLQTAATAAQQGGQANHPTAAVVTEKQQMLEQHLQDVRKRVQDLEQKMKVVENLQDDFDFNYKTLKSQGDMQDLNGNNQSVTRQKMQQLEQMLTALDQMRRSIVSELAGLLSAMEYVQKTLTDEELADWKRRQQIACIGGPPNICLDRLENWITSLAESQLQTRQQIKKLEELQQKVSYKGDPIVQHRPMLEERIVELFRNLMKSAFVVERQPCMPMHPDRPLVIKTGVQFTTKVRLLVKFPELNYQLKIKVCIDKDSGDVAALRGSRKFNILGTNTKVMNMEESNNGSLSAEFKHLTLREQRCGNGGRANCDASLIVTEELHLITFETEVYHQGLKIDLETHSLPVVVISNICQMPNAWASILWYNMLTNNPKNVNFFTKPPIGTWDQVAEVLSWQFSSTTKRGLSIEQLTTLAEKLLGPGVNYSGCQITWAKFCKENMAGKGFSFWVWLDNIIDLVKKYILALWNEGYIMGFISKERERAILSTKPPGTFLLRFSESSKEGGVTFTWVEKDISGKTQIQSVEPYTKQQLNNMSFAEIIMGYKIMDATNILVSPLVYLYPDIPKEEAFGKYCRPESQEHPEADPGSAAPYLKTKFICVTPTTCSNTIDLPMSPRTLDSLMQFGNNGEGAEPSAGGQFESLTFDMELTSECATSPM
The test system of the next assay is HeLa. Put plainly: Inhibition of cell growth in human HeLa cells by MTT assay. The assay is classed as functional, cell-based.
The next assay concerns U-266. Put plainly: Antiproliferative activity against human U-266 cells. Type of assay: functional, cell-based.

Molecules are shown by their SMILES.

In general, IC50 refers to the concentration that inhibits the measured activity by half. On to `C=C1C2=C(C(=O)N1OC)[C@@H](O)[C@@](C)(O)[C@H](CCCCC)O2`, for which the values for the IC50 (in the assay on MDA-MB-231; in assay [1]; in the assay with HeLa) were 24.2 µM, 20.2 µM and 8.4 µM, respectively.
On to `C=C1C2=C(C(=O)N1OC)[C@@H](O)[C@@](C)(O)[C@@H](CCCCC)O2`, for which the IC50 in the assay with MDA-MB-231 stood at 16.2 µM; in assay [1], 9.2 µM; in the assay on HeLa it was 4.2 µM.
As to `CCCCC[C@@H]1OC2=C(C(=O)N(OC)C2=O)[C@H](O)[C@@]1(C)O`, the figures for the IC50 (in the assay on MDA-MB-231; in assay [1]; with HeLa) were > 50 µM, > 100 µM and > 50 µM, respectively.
On to `C=C1C2=C(C(=O)N1OC)[C@H](O)[C@@](C)(O)[C@H](CCCCC)O2`, for which the IC50 with MDA-MB-231 worked out at 29.7 µM; in assay [1], 13.5 µM; with U-266, 6.7 µM; with HeLa it was 8.8 µM. For the same compound, the inhibition entry in assay [1] (dose <= 100.0 µM) is “Dose-dependent-effect”.
With `C=C1C2=C(C(=O)N1OC)[C@@H](O)[C@](C)(O)[C@@H](CCCCC)O2`, the figures for the IC50 (with MDA-MB-231; in assay [1]; with HeLa) were 8.9 µM, 6.6 µM and 4.2 µM, respectively.
Turning to `C=C1C2=C(C(=O)N1OC)[C@H](O)[C@@](C)(O)[C@@H](CCCCC)O2`, the IC50 in the assay on MDA-MB-231 worked out at 19.8 µM; in assay [1], 7.3 µM; in the assay on HeLa, 6.1 µM.
For `O=[N+]([O-])c1ccc2c(c1)S(=O)(=O)C=C2`, the IC50 in the assay on MDA-MB-231 is 3.4 µM; in assay [1], < 6.3 µM; with HeLa, 0.57 µM.
